Experimental data taken from patent US7776883B2, “Quinolin-4-ones as inhibitors of retroviral integrase for the treatment of HIV, AIDS and AIDS related complex (ARC)” (The United States of America as represented by the …, priority 2004, dated 2010).

Test system: HIV-1, IIIB strain
Test: Inhibition of HIV-1-induced cytopathicity in acutely infected MT-4 cells (MTT method)
Type: cell-based
Settings: Human immunodeficiency virus 1, IIIB, MT4, 96 h, 4-day incubation, read-out: 50% effective concentration value (EC50)
Method: Several of the compounds disclosed herein were tested for their ability to inhibit HIV cell multiplication. The compounds were solubilized in dimethyl sulfoxide at 200 mM and then diluted into culture medium. MT-4, C8166, H9/IIIB cells were grown at 37° C. in a 5% CO2 atmosphere in RPMI 1640 medium, supplemented with 10% fetal calf serum (FCS), 100 IU/mL penicillin G and 100 μg/mL streptomycin. Cell cultures were checked periodically for the absence of mycoplasma contamination with a MycoTect Kit (Gibco). Human immunodeficiency viruses type-1 (HIV-1, IIIB strain) were obtained from supernatants of persistently infected H9/IIIB. HIV-1 stock solutions had titres of 4.5×10^6 50% cell culture infectious dose (CCID50)/mL. Titration of HIV-1 was performed in C8166 cells by the standard limiting dilution method (dilution 1:2, four replica wells/dilution) in 96-well plates. The infectious virus titer was determined by light microscope scoring of cytopathicity after 4 days of incubation and the virus titers were expressed as CCID50/mL.
Activity of the compounds against HIV-1 multiplication in acutely infected cells was based on the inhibition of virus-induced cytopathicity in MT-4 cells. Briefly, 50 μL of culture medium containing 1×10^4 cells were added to each well of flat-bottom microtiter trays containing 50 μL of culture medium with or without various concentrations of the test compounds. Then 20 μL of an HIV-1 suspension containing 100 CCID50 was added. After a 4-day incubation at 37° C., the number of viable cells was determined by the 3-(4,5-dimethylthiazol-[…])-2,5-diphenyltetrazolium bromide (MTT) method (Pauwels, R.; Balzarini, J.; Baba, M.; Snoeck, R.; Schols, D.; Herdewijn, P.; Desmyster, J.; De Clercq, E. J. Virol. Methods 1988, 20, 309-321). Cytotoxicity of the compounds was evaluated in parallel with their antiviral activity, and was based on the viability of mock-infected cells, as monitored by the MTT method.

Row | Compound | EC50 [µM]
1 | CCOC(=O)C(=O)CC(=O)c1cn(Cc2ccc(F)cc2)c2ccc(Cl)cc2c1=O [RDS1755] | 5

Test system: not given
Test: not given
Settings: not given

Row | Compound | melting point [°C]
2 | CCOC(=O)C(=O)CC(=O)c1cn(Cc2ccc(F)cc2)c2c(F)cccc2c1=O | 179 to 180
3 | O=C(O)C(=O)CC(=O)c1cn(Cc2ccc(O)cc2)c2ccccc2c1=O | 206 to 208
4 | CCOC(=O)C(=O)CC(=O)c1cn(Cc2ccc(F)cc2)c2cc(Cl)c(Cl)cc2c1=O | 144 to 145
5 | COc1cccc(Cn2cc(C(=O)CC(=O)C(=O)O)c(=O)c3ccccc32)c1 | 179 to 181
6 | O=C(O)C(=O)CC(=O)c1cn(Cc2ccc(F)cc2)c2c(F)cccc2c1=O | 180 to 181
7 | CCOC(=O)C(=O)CC(=O)c1cn(Cc2ccc(O)cc2)c2ccccc2c1=O | 179 to 181
8 | CCOC(=O)C(=O)CC(=O)c1cn(Cc2cccc(OC)c2)c2ccccc2c1=O | 177 to 179
9 | CCOC(=O)C(=O)CC(=O)c1ccc2c(c1)c(=O)c(CCC(=O)O)cn2Cc1ccc(F)cc1 | 177 to 180
10 | COc1ccccc1Cn1cc(C(=O)CC(=O)C(=O)O)c(=O)c2ccccc21 | 173 to 175
11 | CCOC(=O)C(=O)CC(=O)c1cn(Cc2ccc(F)cc2)c2c(Cl)cccc2c1=O | 164 to 165
12 | CCOC(=O)C(=O)CC(=O)c1cn(Cc2ccccc2F)c2cc(Cl)ccc2c1=O | 173 to 175
13 | O=C(O)C(=O)CC(=O)c1cn(Cc2ccccc2F)c2cc(Cl)ccc2c1=O | 187 to 189
14 | O=C(O)C(=O)CC(=O)c1cn(Cc2ccc(F)cc2)c2c(Cl)cccc2c1=O | 175 to 177
15 | O=C(O)C(=O)CC(=O)c1cn(Cc2ccc(F)cc2)c2cc(Cl)c(Cl)cc2c1=O | 175 to 177
16 | O=C(O)CCc1cn(Cc2ccc(F)cc2)c2ccc(C(=O)CC(=O)C(=O)O)cc2c1=O | 184 to 187
17 | CCOC(=O)C(=O)CC(=O)c1cn(Cc2ccccc2OC)c2ccccc2c1=O | 154 to 156
18 | O=C(O)C(=O)CC(=O)c1cn(Cc2ccc(F)cc2)c2cc(N3CCCC3)ccc2c1=O | 197 to 199

More lines, now with the values ahead:

Row | melting point [°C] | Compound
19 | 237 to 238 | CCOC(=O)C(=O)CC(=O)c1cn(Cc2ccc3ccccc3n2)c2ccccc2c1=O [RDS1999, 4-[1-(2-Quinolinyl)methyl-1,4-dihydro-4-oxoquinolin-3-yl]-2,4-dioxobutanoic acid ethyl ester]
20 | 230 to 232 | O=C(O)C(=O)CC(=O)c1cn(Cc2ccc([N+](=O)[O-])cc2)c2ccccc2c1=O [RDS2018, 4-[1-(4-Nitrophenyl)methyl-1,4-dihydro-4-oxoquinolin-3-yl]-2,4-dioxobutanoic acid]
21 | 141 to 142 | O=C(O)C(=O)CC(=O)c1cn(Cc2ccccc2)c2ccccc2c1=O [RDS1993, 4-(1-Phenylmethyl-1,4-dihydro-4-oxoquinolin-3-yl)-2,4-dioxobutanoic acid]
22 | 141 to 142 | CCOC(=O)C(=O)CC(=O)c1cn(Cc2ccccc2)c2ccccc2c1=O [RDS1992, 4-(1-Phenylmethyl-1,4-dihydro-4-oxoquinolin-3-yl)-2,4-dioxobutanoic acid ethyl ester]
23 | 172 to 174 | O=C(O)C(=O)CC(=O)c1cn(Cc2ccccc2F)c2ccccc2c1=O [RDS1990, 4-[1-(2-Fluorophenyl)methyl-1,4-dihydro-4-oxoquinolin-3-yl]-2,4-dioxobutanoic acid]
24 | 154 to 156 | CCOC(=O)C(=O)CC(=O)c1cn(Cc2ccc(OC)cc2)c2ccccc2c1=O [RDS2034, 4-[1-(4-Methoxyphenyl)methyl-1,4-dihydro-4-oxoquinolin-3-yl]-2,4-dioxobutanoic acid ethyl ester]
25 | 171 to 172 | O=C(O)C(=O)CC(=O)c1cn(Cc2c(F)cccc2F)c2ccccc2c1=O [RDS1984, 4-[1-(2,6-Difluorophenyl)methyl-1,4-dihydro-4-oxoquinolin-3-yl]-2,4-dioxobutanoic acid]
26 | > 290 | O=C(O)C(=O)CC(=O)c1c[nH]c2ccccc2c1=O [RDS1680, 4-(1,4-dihydro-4-oxoquinolin-3-yl)-2,4-dioxobutanoic acid]
27 | 153 to 154 | CCOC(=O)C(=O)CC(=O)c1cn(Cc2ccc3ccccc3c2)c2ccccc2c1=O [RDS1974, 4-[α-(2-Naphthyl)methyl-1,4-dihydro-4-oxoquinolin-3-yl]-2,4-dioxobutanoic acid ethyl ester]
28 | 183 to 184 | O=C(O)C(=O)CC(=O)c1cn(Cc2ccc(F)cc2)c2ccc(F)cc2c1=O [RDS2078, 4-[1-(4-Fluorophenyl)methyl-6-fluoro-1,4-dihydro-4-oxoquinolin-3-yl]-2,4-dioxobutanoic acid]
29 | 212 to 213 | O=C(O)C(=O)CC(=O)c1cn(Cc2ccc3ccccc3c2)c2ccccc2c1=O [RDS1975, 4-[1-(2-Naphthyl)methyl-1,4-dihydro-4-oxoquinolin-3-yl]-2,4-dioxobutanoic acid]
30 | 175 to 176 | CCOC(=O)C(=O)CC(=O)c1cn(Cc2ccc([N+](=O)[O-])cc2)c2ccccc2c1=O [RDS2017, 4-[1-(4-Nitrophenyl)methyl-1,4-dihydro-4-oxoquinolin-3-yl]-2,4-dioxobutanoic acid ethyl ester]
31 | 172 to 173 | CCOC(=O)C(=O)CC(=O)c1cn(Cc2c(F)cccc2F)c2ccccc2c1=O [RDS1983, 4-[1-(2,6-Difluorophenyl)methyl-1,4-dihydro-4-oxoquinolin-3-yl]-2,4-dioxobutanoic acid ethyl ester]
32 | 136 to 138 | O=C(O)C(=O)CC(=O)c1cn(CCCCc2ccccc2)c2ccccc2c1=O [RDS1981, 4-[1-(4-Phenylbutyl)-1,4-dihydro-4-oxoquinolin-3-yl]-2,4-dioxobutanoic acid]
33 | 151 to 152 | CCOC(=O)C(=O)CC(=O)c1cn(Cc2ccc(F)cc2)c2cc(F)ccc2c1=O [RDS2021, 4-[1-(4-Fluorophenyl)methyl-7-fluoro-1,4-dihydro-4-oxoquinolin-3-yl]-2,4-dioxobutanoic acid ethyl ester]
34 | 174 to 175 | CCOC(=O)C(=O)CC(=O)c1cn(Cc2cccc(F)c2)c2ccccc2c1=O [RDS1986, 4-[1-(3-Fluorophenyl)methyl-1,4-dihydro-4-oxoquinolin-3-yl]-2,4-dioxobutanoic acid ethyl ester]
35 | 235 to 237 | CCOC(=O)C(=O)CC(=O)c1c[nH]c2ccccc2c1=O [RDS1675, 4-(1,4-dihydro-4-oxoquinolin-3-yl)-2,4-dioxobutanoic acid ethyl ester]
36 | 174 to 176 | CCOC(=O)C(=O)CC(=O)c1cn(Cc2ccc(Cl)cc2)c2ccccc2c1=O [RDS2011, 4-[1-(4-Chlorophenyl)methyl-1,4-dihydro-4-oxoquinolin-3-yl]-2,4-dioxobutanoic acid ethyl ester]
37 | 158 to 159 | O=C(O)C(=O)CC(=O)c1cn(Cc2cccc(F)c2)c2ccccc2c1=O [RDS1987, 4-[1-(3-Fluorophenyl)methyl-1,4-dihydro-4-oxoquinolin-3-yl]-2,4-dioxobutanoic acid]
38 | 152 to 153 | CCOC(=O)C(=O)CC(=O)c1cn(Cc2ccc(F)cc2)c2ccc(F)cc2c1=O [RDS2077, 4-[1-(4-Fluorophenyl)methyl-6-fluoro-1,4-dihydro-4-oxoquinolin-3-yl]-2,4-dioxobutanoic acid ethyl ester]
39 | 177 to 179 | O=C(O)C(=O)CC(=O)c1cn(Cc2ccc(Cl)cc2)c2ccccc2c1=O [RDS2012, 4-[1-(4-Chlorophenyl)methyl-1,4-dihydro-4-oxoquinolin-3-yl]-2,4-dioxobutanoic acid]
40 | 152 to 153 | CCOC(=O)C(=O)CC(=O)c1cn(Cc2ccccc2F)c2ccccc2c1=O [RDS1989, 4-[1-(2-Fluorophenyl)methyl-1,4-dihydro-4-oxoquinolin-3-yl]-2,4-dioxobutanoic acid ethyl ester]
41 | 149 to 150 | COc1ccc(Cn2cc(C(=O)CC(=O)C(=O)O)c(=O)c3ccccc32)cc1 [RDS2035, 4-[1-(4-Methoxyphenyl)methyl-1,4-dihydro-4-oxoquinolin-3-yl]-2,4-dioxobutanoic acid]
42 | 88 to 90 | CCOC(=O)C(=O)CC(=O)c1cn(CCCCc2ccccc2)c2ccccc2c1=O [RDS1980, 4-[1-(4-Phenylbutyl)-1,4-dihydro-4-oxoquinolin-3-yl]-2,4-dioxobutanoic acid ethyl ester]
43 | 162 to 163 | O=C(O)C(=O)CC(=O)c1cn(Cc2ccc(F)cc2)c2cc(F)ccc2c1=O [RDS2022, 4-[1-(4-Fluorophenyl)methyl-7-fluoro-1,4-dihydro-4-oxoquinolin-3-yl]-2,4-dioxobutanoic acid]
44 | > 300 | O=C(O)C(=O)CC(=O)c1cn(Cc2ccc3ccccc3n2)c2ccccc2c1=O [RDS2000, 4-[1-(2-Quinolinyl)methyl-1,4-dihydro-4-oxoquinolin-3-yl]-2,4-dioxobutanoic acid]
